{"source": "patent US20240407993A1", "about": "“PEPTIDE HAVING ANTI-AGING ACTIVITY, AND USE THEREOF” (CAREGEN CO., LTD., priority 2021, published 2024)", "key": {"SIRT1 [1]": {"system": "SIRT1", "test": "SIRT1 mRNA level decreased by UV irradiation, RT-PCR in keratinocytes", "type": "cell-based, human", "details": "HaCaT cells, 20 mJ/cm^2 UVB, peptide 1, 10, 50 μM, 4 hours after irradiation; FIGS. 7A, 7B", "protocol": "(§1) The expression of genes related to aging is inhibited when irradiated with UV.\n(§2) First, HaCaT cells were seeded in a 6-well plate at a cell density of 5×10^5 cell/well, and then the cells were cultured in DMEM medium containing 10% fetal bovine serum (FBS) for 24 hours. The cultured cells were washed once with serum free DMEM medium, and then the peptide of the present invention was mixed in 1 mL of the serum free DMEM medium at each of concentrations of 1, 10, and 50 μM, and dispensed into the cells. A positive control (PC) was treated with 2.5 mM of N-Acetylcysteine (NaC) instead of the above peptide.\n(§3) The cells were cultured in a CO2 incubator at 37° C. for 1 hour. The medium of the cultured cells was transferred to a tube (e-tube), 1 ml of PBS was added, and irradiation was performed with 20 mJ/cm^2 of UVB using a UV irradiator (VILBER LOURMAT, Cat No.: 3102-BSU, France). After removing PBS, 900 μL of the medium transferred to the tube was added, and culture was performed in a CO2 incubator at 37° C. for 4 hours. The cultured cells were washed twice with PBS, and then RNA was extracted from the cells using easy blue (iNtRON, Cat. No.: 17061, Korea). The extracted RNA was subjected to RT reaction using a kit (enzynomics, Cat. No.: RT200, Korea). Thereafter, RT-PCR was performed using a PCR kit (enzynomics, Cat. No.: R581T, Korea). […]"}, "AQP3": {"system": "AQP3", "test": "AQP3 mRNA level decreased by UV irradiation, RT-PCR in keratinocytes", "type": "cell-based, human", "details": "HaCaT cells, 20 mJ/cm^2 UVB, peptide 1, 10, 50 μM, 4 hours after irradiation; FIGS. 7A, 7C", "protocol": "as §1, §2, §3"}, "SIRT1 [2]": {"system": "SIRT1", "test": "SIRT1 mRNA level by RT-PCR in keratinocytes", "type": "cell-based, human", "details": "HaCaT cells, peptide 1, 10, 50 μM, 24 hours; FIGS. 3A, 3B", "protocol": "as §2, with “3×10^5” for “5×10^5”, “100 nM” for “2.5 mM”, “EGF” for “N-Acetylcysteine (NaC)”, “peptide. The cells were cultured in a CO2 incubator at 37° C. for 24 hours.” for “peptide.”\nThe cultured cells were washed twice with PBS, and then RNA was extracted from the cells using easy blue (iNtRON, Cat. No.: 17061, Korea). The extracted RNA was subjected to RT reaction using a kit (enzynomics, Cat. No.: RT200, Korea). Thereafter, RT-PCR was performed using a PCR kit (enzynomics, Cat. No.: R581T, Korea). The sequences of the primers of AQP3 and SIRT1 used in RT-PCR and the sequence of the primer of GAPDH used to compare the total RNA amount of each treatment group are shown in [Table 2]."}, "NIH3T3 cells": {"system": "NIH3T3 cells", "test": "Intracellular ROS level after UVA irradiation (DCFH-DA, FACS) in fibroblasts", "type": "cell-based, mouse", "details": "8 J/cm^2 UVA, peptide 1, 10, 50 μM, 24 hours after irradiation, FIG. 4A", "protocol": "The reactive oxygen species level increases when UV is irradiated. Therefore, it was confirmed whether the reactive oxygen species level decreased again and the aging phenomenon caused by oxidative stress in cells was inhibited when treated with the peptide of the present invention.\nas §2, with “First, NIH3T3 cells and” for “First,”, “cell/well, respectively,” for “cell/well,”\nThe cells were cultured in a CO2 incubator at 37° C. for 1 hour. The medium of the cultured cells was transferred to a tube, 1 ml of PBS was added, and then the NIH3T3 cells were irradiated with 8 J/cm^2 of UVA and the HaCaT cells were irradiated with 15 mJ/cm^2 of UVB using a UV irradiator (VILBER LOURMAT, Cat No.: 3102-BSU, France). […] After centrifugation, the cells were washed with PBS, and a fluorescence value was measured through FACS."}}, "data": [{"sequence": "LCACCLHNCNECQ", "values": [{"measurement": "mRNA level of SIRT1 decreased by UV irradiation", "setting": "SIRT1 [1]", "value": "increased again"}, {"measurement": "mRNA level of AQP3 decreased by UV irradiation", "setting": "AQP3", "value": "increased again"}, {"measurement": "mRNA level of SIRT1", "setting": "SIRT1 [2]", "value": "increased"}, {"measurement": "intracellular reactive oxygen species level increased by UV irradiation", "setting": "NIH3T3 cells", "value": "decreased"}]}]}
